The source of these data is patent publication US9662323B2, “Compounds having muscarinic receptor antagonist and beta2 adrenergic receptor agonist activity” (CHIESI FARMACEUTICI S.p.A., priority 2015, dated 2017).

Assay [1] addresses T1, Human β2 adrenoceptor (Homo sapiens, UniProt P07550).
T1 construct: purchased Perkin Elmer
Nature of the assay: β2 Adrenoceptor Radioligand Binding Assay. The essentials: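 Membranes were incubated 1 h at room temperature in 25 mM HEPES, 0.5% BSA, 1 mM EDTA, 0.02% ascorbic acid, pH 7.4, with 0.5% DMSO final. Bound radioligand was collected by GF/C filtration and counted by scintillation. IC50 values from competition curves were converted to Ki by Cheng–Prusoff.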

In assay [2] the target is T2, Human M3 receptor (Homo sapiens, UniProt P20309).
T2 construct: purchased Perkin Elmer
T2 sequence (P20309 whole entry): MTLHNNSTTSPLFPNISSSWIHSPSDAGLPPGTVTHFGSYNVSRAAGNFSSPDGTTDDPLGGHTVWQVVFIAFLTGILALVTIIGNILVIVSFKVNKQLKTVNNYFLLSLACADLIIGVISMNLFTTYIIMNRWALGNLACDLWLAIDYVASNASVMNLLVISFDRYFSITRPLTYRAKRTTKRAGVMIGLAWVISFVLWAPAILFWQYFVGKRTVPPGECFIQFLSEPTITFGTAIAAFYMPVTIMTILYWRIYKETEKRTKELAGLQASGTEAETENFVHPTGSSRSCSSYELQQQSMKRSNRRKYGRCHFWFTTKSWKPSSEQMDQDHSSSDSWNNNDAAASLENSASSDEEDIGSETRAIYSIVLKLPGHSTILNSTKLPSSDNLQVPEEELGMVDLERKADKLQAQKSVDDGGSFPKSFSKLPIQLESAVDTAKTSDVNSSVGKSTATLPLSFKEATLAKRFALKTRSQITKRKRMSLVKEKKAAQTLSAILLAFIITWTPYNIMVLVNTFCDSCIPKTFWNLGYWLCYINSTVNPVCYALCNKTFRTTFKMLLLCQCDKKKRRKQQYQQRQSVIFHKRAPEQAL
Kind of assay: M3 Receptor Radioligand Binding Assay. The method in brief:
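Radioligand binding with 0.5% (v/v) final DMSO, incubated 2 h at room temperature with shaking. Membranes were collected on GF/C filters pre-treated with 0.5% polyethyleneimine, washed four times with assay buffer, and counted by scintillation.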

Where [3] appears, read: human β2 adrenoceptor membranes, 125-I Cyanopindolol, read-out: B2 binding affinity (Ki class).
The mark [4] stands for this setting: human M3 receptor membranes, [3H]-N-methyl scopolamine, read-out: M3 binding affinity (Ki class).

Read-outs that look alike come from different tables or passages of the source.

T1 sequence (P07550 whole entry): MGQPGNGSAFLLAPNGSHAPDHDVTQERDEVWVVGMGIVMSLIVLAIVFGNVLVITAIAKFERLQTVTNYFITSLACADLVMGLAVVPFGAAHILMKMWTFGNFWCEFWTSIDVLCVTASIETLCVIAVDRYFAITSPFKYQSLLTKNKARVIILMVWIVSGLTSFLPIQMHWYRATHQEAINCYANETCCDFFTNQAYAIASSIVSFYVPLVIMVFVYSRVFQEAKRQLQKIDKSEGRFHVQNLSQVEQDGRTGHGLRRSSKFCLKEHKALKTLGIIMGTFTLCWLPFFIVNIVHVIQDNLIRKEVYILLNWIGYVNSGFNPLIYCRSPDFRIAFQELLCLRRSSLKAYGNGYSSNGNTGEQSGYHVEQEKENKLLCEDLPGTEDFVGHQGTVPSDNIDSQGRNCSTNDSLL

Turning to `CCN(CCCNC[C@H](O)c1ccc(O)c2[nH]c(=O)ccc12)C(=O)c1ccc(CCC(=O)N2CCC(C(=O)O[C@H]3CN4CCC3CC4)(c3ccccc3)CC2)cc1` [Compound 52, (R)-Quinuclidin-3-yl 1-(3-(4-(ethyl(3-(((R)-2-hydroxy-2-(8-hydroxy-2-oxo-1,2-dihydroquinolin-5-yl)ethyl)amino)propyl)carbamoyl)phenyl)propanoyl)-4-phenylpiperidine-4-carboxylate], the Ki (in general, a measure of affinity in units of concentration, obtained from inhibition or displacement) in assay [1] (setting [3]) is under 1 nM; in assay [2] (setting [4]), 1 to 10 nM.
With `CN(CCCNC[C@H](O)c1ccc(O)c2[nH]c(=O)ccc12)C(=O)c1ccc(CCC(=O)N2CCC(C(=O)O[C@H]3CN4CCC3CC4)(c3ccccc3)CC2)cc1` [Compound 53, (R)-Quinuclidin-3-yl 1-(3-(4-((3-(((R)-2-hydroxy-2-(8-hydroxy-2-oxo-1,2-dihydroquinolin-5-yl)ethyl)amino)propyl)(methyl)carbamoyl)phenyl)propanoyl)-4-phenylpiperidine-4-carboxylate], the inhibition constant (Ki) in assay [1] (setting [3]) and in assay [2] (setting [4]) was 1 to 10 nM in each case.
Take `O=C(CCc1ccc(C(=O)N(CCCNC[C@H](O)c2ccc(O)c3[nH]c(=O)ccc23)Cc2ccccc2)cc1)N1CCC(C(=O)O[C@H]2CN3CCC2CC3)(c2ccccc2)CC1` [Compound 54, (R)-Quinuclidin-3-yl 1-(3-(4-(benzyl(3-(((R)-2-hydroxy-2-(8-hydroxy-2-oxo-1,2-dihydroquinolin-5-yl)ethyl)amino)propyl)carbamoyl)phenyl)propanoyl)-4-phenylpiperidine-4-carboxylate]: the Ki in assay [1] (setting [3]) and in assay [2] (setting [4]) was 1 to 10 nM each time.
On to `O=C(Cc1ccc(OCc2ccc(CNC[C@H](O)c3ccc(O)c4[nH]c(=O)ccc34)cc2)cc1)N1CCC(C(=O)O[C@H]2CN3CCC2CC3)(c2ccccc2)CC1` [Compound 55, (R)-Quinuclidin-3-yl 1-(2-(4-((4-((((R)-2-hydroxy-2-(8-hydroxy-2-oxo-1,2-dihydroquinolin-5-yl)ethyl)amino)methyl)benzyl)oxy)phenyl)acetyl)-4-phenylpiperidine-4-carboxylate], for which the Ki in assay [1] (setting [3]) and in assay [2] (setting [4]) was under 1 nM in each case.
Turning to `O=C(CCc1ccc(OCc2ccc(CNC[C@H](O)c3ccc(O)c4[nH]c(=O)ccc34)cc2)cc1)N1CCC(C(=O)O[C@H]2CN3CCC2CC3)(c2ccccc2)CC1` [Compound 56, (R)-Quinuclidin-3-yl 1-(3-(4-((4-((((R)-2-hydroxy-2-(8-hydroxy-2-oxo-1,2-dihydroquinolin-5-yl)ethyl)amino)methyl)benzyl)oxy)phenyl)propanoyl)-4-phenylpiperidine-4-carboxylate], the Ki was under 1 nM in assay [1] (setting [3]) and 1 to 10 nM in assay [2] (setting [4]).
Take `CC(=O)N(Cc1ccc(CNC[C@H](O)c2ccc(O)c3[nH]c(=O)ccc23)cc1)Cc1ccc(C(=O)N2CCC(C(=O)O[C@H]3CN4CCC3CC4)(c3ccccc3)CC2)cc1` [Compound 57, (R)-Quinuclidin-3-yl 1-(4-((N-(4-((((R)-2-hydroxy-2-(8-hydroxy-2-oxo-1,2-dihydroquinolin-5-yl)ethyl)amino)methyl)benzyl)acetamido)methyl)benzoyl)-4-phenylpiperidine-4-carboxylate]: the Ki is 1 to 10 nM in assay [1] (setting [3]) and under 1 nM in assay [2] (setting [4]).
In the same order, the values of `CS(=O)(=O)N(Cc1ccc(CNC[C@H](O)c2ccc(O)c3[nH]c(=O)ccc23)cc1)Cc1ccc(C(=O)N2CCC(C(=O)O[C@H]3CN4CCC3CC4)(c3ccccc3)CC2)cc1` [Compound 58, (R)-Quinuclidin-3-yl 1-(4-((N-(4-((((R)-2-hydroxy-2-(8-hydroxy-2-oxo-1,2-dihydroquinolin-5-yl)ethyl)amino)methyl)benzyl)methylsulfonamido)-methyl)benzoyl)-4-phenylpiperidine-4-carboxylate] are 1 to 10 nM and 1 to 10 nM.
For the compound `O=C(c1ccc(CN(Cc2ccc(CNC[C@H](O)c3ccc(O)c4[nH]c(=O)ccc34)cc2)C(=O)c2ccccc2)cc1)N1CCC(C(=O)O[C@H]2CN3CCC2CC3)(c2ccccc2)CC1` [Compound 59, (R)-Quinuclidin-3-yl 1-(4-((N-(4-((((R)-2-hydroxy-2-(8-hydroxy-2-oxo-1,2-dihydroquinolin-5-yl)ethyl)amino)methyl)benzyl)benzamido)methyl)benzoyl)-4-phenylpiperidine-4-carboxylate], the figures for the Ki in assay [1] and in assay [2] were over 10 nM and under 1 nM, respectively.
Regarding `O=C(c1ccc(CN(Cc2ccc(CNC[C@H](O)c3ccc(O)c4[nH]c(=O)ccc34)cc2)C(=O)C2CC2)cc1)N1CCC(C(=O)O[C@H]2CN3CCC2CC3)(c2ccccc2)CC1` [Compound 60, (R)-Quinuclidin-3-yl 1-(4-((N-(4-((((R)-2-hydroxy-2-(8-hydroxy-2-oxo-1,2-dihydroquinolin-5-yl)ethyl)amino)methyl)benzyl)cyclopropanecarboxamido)-methyl)benzoyl)-4-phenylpiperidine-4-carboxylate], the results for the Ki in assay [1] (setting [3]) and in assay [2] (setting [4]) were 1 to 10 nM and under 1 nM, respectively.
Take `O=C(c1ccc(CN(Cc2ccc(CNC[C@H](O)c3ccc(O)c4[nH]c(=O)ccc34)cc2)S(=O)(=O)c2ccccc2)cc1)N1CCC(C(=O)O[C@H]2CN3CCC2CC3)(c2ccccc2)CC1` [Compound 61, (R)-Quinuclidin-3-yl 1-(4-((N-(4-((((R)-2-hydroxy-2-(8-hydroxy-2-oxo-1,2-dihydroquinolin-5-yl)ethyl)amino)methyl)benzyl)phenylsulfonamido)-methyl)benzoyl)-4-phenylpiperidine-4-carboxylate]: the inhibitory constant (Ki) in assay [1] is over 10 nM; in assay [2] it was under 1 nM.
As for `COC(=O)N(Cc1ccc(CNC[C@H](O)c2ccc(O)c3[nH]c(=O)ccc23)cc1)Cc1ccc(C(=O)N2CCC(C(=O)O[C@H]3CN4CCC3CC4)(c3ccccc3)CC2)cc1` [Compound 62, (R)-Quinuclidin-3-yl 1-(4-(((4-((((R)-2-hydroxy-2-(8-hydroxy-2-oxo-1,2-dihydroquinolin-5-yl)ethyl)amino)methyl)benzyl)(methoxycarbonyl)amino)-methyl)benzoyl)-4-phenylpiperidine-4-carboxylate], the inhibition constant (Ki) in assay [1] (setting [3]) is 1 to 10 nM; in assay [2] (setting [4]), under 1 nM.
Take `CNC(=O)N(Cc1ccc(CNC[C@H](O)c2ccc(O)c3[nH]c(=O)ccc23)cc1)Cc1ccc(C(=O)N2CCC(C(=O)O[C@H]3CN4CCC3CC4)(c3ccccc3)CC2)cc1` [Compound 63, (R)-Quinuclidin-3-yl 1-(4-((1-(4-((((R)-2-hydroxy-2-(8-hydroxy-2-oxo-1,2-dihydroquinolin-5-yl)ethyl)amino)methyl)benzyl)-3-methylureido)methyl)benzoyl)-4-phenylpiperidine-4-carboxylate]: the figures for the Ki in assay [1] (setting [3]) and in assay [2] (setting [4]) were 1 to 10 nM and under 1 nM, respectively.
With `O=C(c1ccc(COCc2ccc(CNC[C@H](O)c3ccc(O)c4[nH]c(=O)ccc34)cc2)cc1)N1CCC(C(=O)O[C@H]2CN3CCC2CC3)(c2ccccc2)CC1` [Compound 64, (R)-Quinuclidin-3-yl 1-(4-(((4-((((R)-2-hydroxy-2-(8-hydroxy-2-oxo-1,2-dihydroquinolin-5-yl)ethyl)amino)methyl)benzyl)oxy)methyl)benzoyl)-4-phenylpiperidine-4-carboxylate], the Ki in assay [1] (setting [3]) was 1 to 10 nM; in assay [2] (setting [4]), under 1 nM.
